As a reminder, the CC50 is the concentration giving 50% cytotoxicity. For orientation: EC50 means the midpoint of the concentration-response curve. A word on the IC50: it is the concentration at which inhibition is half-maximal. In general, AC50 refers to the concentration at which the activity in the assay is half-maximal.

Calls of active or inactive are those of the source.

The subject of assay [1] is HeLa. Nature of the assay: Cytotoxicity counterscreen assay for transcriptional activators of heat shock protein 70 (Hsp70). [Related pubchem assays: 1203, 1252 ]. The assay is classed as functional. To be noted: Homo sapiens. In general terms: Counterscreens check selectivity or assay interference.
The nature of assay [2]: inhibitors of intracellular T. cruzi replication, confirmation, NIH3T3 host cells, beta-gal luminescence (AID 2044).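 Also: intracellular parasites grown in NIH/3T3 mouse fibroblasts as host cells; luminescent beta-galactosidase reporter signal from transgenic T. cruzi replicating inside host cells; inhibitors lower the luminescence signal.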 The format is functional, cell-based.
A short description of assay [3]: cytotoxicity toward NIH3T3 fibroblasts, dose response, counter-screen, cell-based, ATP luminescence, mouse fibroblasts (AID 2010).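 Also: cells exposed to compound for about 90 hours before reading.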 The assay is classed as functional.
The target in assay [4] is T1, Sphingosine 1-phosphate receptor 4 (Homo sapiens, UniProt O95977).
T1 sequence (O95977 whole entry): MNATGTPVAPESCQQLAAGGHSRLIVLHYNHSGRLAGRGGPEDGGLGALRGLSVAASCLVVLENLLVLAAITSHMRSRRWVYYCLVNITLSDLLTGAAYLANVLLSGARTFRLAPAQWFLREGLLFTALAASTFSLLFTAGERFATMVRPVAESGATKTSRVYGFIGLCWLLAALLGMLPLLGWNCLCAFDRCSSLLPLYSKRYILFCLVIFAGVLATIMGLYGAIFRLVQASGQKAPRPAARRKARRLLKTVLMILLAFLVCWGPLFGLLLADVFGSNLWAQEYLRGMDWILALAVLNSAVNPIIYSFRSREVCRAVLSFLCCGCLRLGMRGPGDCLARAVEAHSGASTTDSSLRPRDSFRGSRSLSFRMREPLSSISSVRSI
Nature of the assay: Fluorescence dose response cell-based high throughput screening assay for antagonists of the Sphingosine 1-Phosphate Receptor 4 (S1P4). [Related pubchem assays: 1524 (Confirmation in triplicates.), 1510 (Primary screen.)]. The format is functional.

The target in assay [5] is Sphingosine 1-phosphate receptor 1 (Homo sapiens, UniProt P21453). The assay is classed as functional.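 Also: Tango beta-arrestin reporter U2OS cells stimulated with S1P near its EC80; inhibitor potency meaning antagonism of receptor activation by the natural agonist.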
The nature of assay [6]: THP-1 cell cytotoxicity, dose response, cytotoxicity control for non-replicating M. tuberculosis project (AID 489025). The format is functional.
Assay [7] can be described thus: HepG2 cell cytotoxicity, dose response, cytotoxicity control for non-replicating M. tuberculosis project (AID 489018). The format is functional. To be noted: Mycobacterium tuberculosis.
Assay [8] in a line: Vero E6 cell cytotoxicity, dose response, cytotoxicity control for non-replicating M. tuberculosis project, secondary assay (AID 492998). The format is functional, VeroE6. Conditions: Vero C1008.
The nature of assay [9]: cells. The assay is classed as functional.
Assay [10] has as its system CHO. Description: cytotoxicity in TLR9-MyD88 CHO cells, dose response, cytotoxicity control for TLR9-MyD88 binding inhibitor project, cell-based, luminescence (AID 588339).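 Also: CHO cells stably coexpressing TLR9 and MyD88 fusions from primary screen; compound exposure lasted 48 hours before viability readout.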 The format is functional, hamster. To be noted: Cricetulus griseus.
Assay [11] deals with T2, Replicative DNA helicase DnaB (Mycobacterium tuberculosis, UniProt P9WMR3).
T2 sequence (P9WMR3 whole entry): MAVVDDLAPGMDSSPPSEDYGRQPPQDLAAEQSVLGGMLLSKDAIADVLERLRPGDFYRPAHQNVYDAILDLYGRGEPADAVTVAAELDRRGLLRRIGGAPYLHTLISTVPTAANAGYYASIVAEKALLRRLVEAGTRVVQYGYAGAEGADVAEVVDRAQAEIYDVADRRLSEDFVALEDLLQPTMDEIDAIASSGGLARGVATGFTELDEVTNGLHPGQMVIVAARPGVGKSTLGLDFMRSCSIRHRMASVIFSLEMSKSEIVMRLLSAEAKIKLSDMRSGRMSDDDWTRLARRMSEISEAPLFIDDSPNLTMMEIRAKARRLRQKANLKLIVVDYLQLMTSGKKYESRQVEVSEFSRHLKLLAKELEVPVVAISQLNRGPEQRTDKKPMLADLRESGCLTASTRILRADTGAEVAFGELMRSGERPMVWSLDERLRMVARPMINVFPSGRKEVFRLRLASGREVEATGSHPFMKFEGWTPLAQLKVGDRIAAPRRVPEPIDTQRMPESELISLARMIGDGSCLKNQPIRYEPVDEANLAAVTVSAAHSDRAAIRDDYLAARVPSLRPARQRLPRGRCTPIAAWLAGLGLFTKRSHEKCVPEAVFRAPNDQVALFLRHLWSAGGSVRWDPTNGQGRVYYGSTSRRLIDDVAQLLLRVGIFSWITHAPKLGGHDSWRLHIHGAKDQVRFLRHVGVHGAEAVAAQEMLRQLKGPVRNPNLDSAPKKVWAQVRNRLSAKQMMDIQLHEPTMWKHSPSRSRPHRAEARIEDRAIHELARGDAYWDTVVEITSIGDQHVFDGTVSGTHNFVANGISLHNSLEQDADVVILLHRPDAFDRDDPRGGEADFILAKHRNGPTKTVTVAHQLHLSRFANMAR
Description: DnaB intein splicing inhibitors, dose response, biochemical, cell-free fluorescence (AID 449749). The assay is classed as functional.

Assay [12] deals with Heat shock protein HSP 90-alpha (Homo sapiens, UniProt P07900). The format is functional, organism-based.
Assay [13] addresses T3, Protein RecA (Mycobacterium tuberculosis, UniProt P9WHJ3).
T3 sequence (P9WHJ3 whole entry): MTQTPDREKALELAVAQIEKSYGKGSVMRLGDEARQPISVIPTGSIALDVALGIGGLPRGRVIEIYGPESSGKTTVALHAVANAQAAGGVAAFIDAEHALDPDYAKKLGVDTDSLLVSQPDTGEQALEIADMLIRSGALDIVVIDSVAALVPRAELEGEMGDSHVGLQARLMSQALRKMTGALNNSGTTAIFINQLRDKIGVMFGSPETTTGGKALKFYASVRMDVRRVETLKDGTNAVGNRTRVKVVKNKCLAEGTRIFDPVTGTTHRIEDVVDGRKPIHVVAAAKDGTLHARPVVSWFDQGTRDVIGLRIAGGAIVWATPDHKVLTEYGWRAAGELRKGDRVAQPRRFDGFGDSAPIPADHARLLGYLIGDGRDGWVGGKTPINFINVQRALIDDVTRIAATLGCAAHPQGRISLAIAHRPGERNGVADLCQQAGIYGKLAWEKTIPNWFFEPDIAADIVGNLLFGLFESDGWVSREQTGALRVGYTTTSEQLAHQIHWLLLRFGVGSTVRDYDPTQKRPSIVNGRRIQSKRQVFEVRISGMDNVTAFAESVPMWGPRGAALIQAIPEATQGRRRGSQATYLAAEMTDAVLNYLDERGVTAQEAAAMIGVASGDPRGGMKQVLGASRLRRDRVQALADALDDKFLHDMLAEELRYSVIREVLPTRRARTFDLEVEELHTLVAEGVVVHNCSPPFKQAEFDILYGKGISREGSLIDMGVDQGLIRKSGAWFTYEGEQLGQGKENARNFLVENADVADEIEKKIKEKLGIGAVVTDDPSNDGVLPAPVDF
Description: Fluorescence Cell-Free Homogeneous Dose Retest to Identify Inhibitors of RecA-Intein Splicing Activity. [Related pubchem assays (depositor defined):AID2097, AID2223, AID489010, AID492950]. The format is functional.

In assay [14] the target is Beta Lactamase (Pseudomonas aeruginosa, UniProt Q932Y6). Description: beta-lactamase reporter inhibitor potency, dose response, artefact control for TLR9-MyD88 binding inhibitor project, BLA reporter cells, FRET fluorescence (AID 588341).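 Also: cell based assay in CHO-K1 cells stably expressing beta-lactamase.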 The assay is classed as cell-based.
In assay [15] the test system is INS1. Nature of the assay: beta cell apoptosis inhibitors, cytokine rescue, dose response, luminescence, retest (AID 449756).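 Also: cell death triggered by IL-1 beta plus TNF-alpha plus IFN-gamma mixture; protective hits raise ATP signal compared with cytokine alone wells.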 The assay is classed as functional, cell-based. To be noted: Rattus norvegicus.
In assay [16] the target is Serine/threonine-protein phosphatase PP1-alpha catalytic subunit (Homo sapiens, UniProt P62136). Description: PP1 phosphatase inhibitors, dose response, biochemical, fluorescence (AID 2403).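 Also: phosphatase turnover of OMFP into fluorescent 3-O-methylfluorescein.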
Assay [17] deals with Serine/threonine-protein phosphatase (Homo sapiens, UniProt Q9BPW0). Nature of the assay: Counterscreen for inhibitors of PP1: fluorescence-based biochemical high throughput dose response assay to identify inhibitors of Protein Phosphatase 5 (PP5). [Related pubchem assays: 2034 (Summary (PP5 inhibitors)), 1987 (PP5 inhibitors in singlate), 2235 (PP1 inhibitors in singlate)].

A short description of assay [18]: luciferase reporter signal reduction – luminescence, H4-C neuroglioblastoma cells, dose response (AID 2458).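 Also: H4 neuroglioblastoma cells stably carrying a luciferase reporter gene fusion.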 The format is functional, cell-based. On the technique in general: In a reporter assay the amount or activity of a reporter protein is the signal.
The nature of assay [19]: cells. The assay is classed as functional, cell-based.
Assay [20] in a line: Luminescence Cell-Based Dose Response HTS to Identify Inhibitors of 5'UTR Stem-Loop Driven Prion Protein mRNA Translation in H4 Neuroglioblastoma Cells. [Related pubchem assays: 1827 (Project Summary), 1813 (Primary HTS)]. The assay is classed as functional.
The nature of assay [21]: inhibitors of SNCA 5'UTR-driven reporter translation, confirmation, H4 neuroglioma cells, luminescence (AID 1988). The assay is classed as functional, cell-based.
Assay [22] is described as follows: inhibitors of SNCA 5'UTR-driven translation, confirmation, luminescence, H4 neuroglioblastoma cells, dose confirmation (AID 2454).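 Also: H4 neuroglioblastoma cells carrying an alpha-synuclein 5'UTR luciferase reporter; potency for inhibition of the luciferase signal.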 The format is functional, cell-based.
The nature of assay [23]: cytotoxicity in HEK-293T cells, dose response, cytotoxicity control for BCR NF-kB inhibitor project, luminescence, B-cell screen hits (AID 489021).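 Also: HEK-293T cells carrying an NF-kB luciferase reporter; cells exposed to compound for about 14 hours before viability readout.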 The format is functional, cell-based.

Sphingosine 1-phosphate receptor 1, sequence (P21453 whole entry): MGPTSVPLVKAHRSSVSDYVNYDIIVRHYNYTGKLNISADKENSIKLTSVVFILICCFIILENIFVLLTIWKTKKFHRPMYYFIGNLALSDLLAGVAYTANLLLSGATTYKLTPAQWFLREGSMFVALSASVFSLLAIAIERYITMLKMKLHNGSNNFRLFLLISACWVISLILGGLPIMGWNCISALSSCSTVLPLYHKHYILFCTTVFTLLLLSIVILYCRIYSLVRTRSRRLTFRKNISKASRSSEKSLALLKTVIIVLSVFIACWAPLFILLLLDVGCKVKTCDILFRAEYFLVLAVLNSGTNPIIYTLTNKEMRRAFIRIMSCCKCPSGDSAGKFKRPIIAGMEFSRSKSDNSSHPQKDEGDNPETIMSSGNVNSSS
Serine/threonine-protein phosphatase, sequence (Q9BPW0 whole entry): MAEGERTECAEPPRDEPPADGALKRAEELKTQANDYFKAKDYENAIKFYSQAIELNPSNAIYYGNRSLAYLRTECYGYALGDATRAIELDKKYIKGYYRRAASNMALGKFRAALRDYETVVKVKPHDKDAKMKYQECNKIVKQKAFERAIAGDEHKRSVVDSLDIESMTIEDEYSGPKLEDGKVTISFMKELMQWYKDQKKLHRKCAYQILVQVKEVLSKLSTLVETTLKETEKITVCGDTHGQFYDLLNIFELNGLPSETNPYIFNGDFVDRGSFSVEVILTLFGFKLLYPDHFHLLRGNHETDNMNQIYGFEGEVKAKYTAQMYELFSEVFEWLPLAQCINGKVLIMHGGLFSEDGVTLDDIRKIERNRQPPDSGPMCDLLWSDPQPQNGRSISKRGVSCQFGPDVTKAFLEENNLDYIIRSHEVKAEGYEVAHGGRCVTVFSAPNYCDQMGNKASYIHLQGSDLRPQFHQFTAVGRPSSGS
Beta Lactamase, sequence (Q932Y6 whole entry): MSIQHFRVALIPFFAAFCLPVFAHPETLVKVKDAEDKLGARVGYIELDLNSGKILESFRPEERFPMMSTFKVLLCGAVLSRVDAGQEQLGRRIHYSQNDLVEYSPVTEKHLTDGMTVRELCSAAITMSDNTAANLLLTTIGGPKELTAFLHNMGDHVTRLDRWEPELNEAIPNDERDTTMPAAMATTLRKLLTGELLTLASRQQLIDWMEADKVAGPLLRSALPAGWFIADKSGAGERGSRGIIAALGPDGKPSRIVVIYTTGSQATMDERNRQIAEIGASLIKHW
Serine/threonine-protein phosphatase PP1-alpha catalytic subunit, sequence (P62136 whole entry): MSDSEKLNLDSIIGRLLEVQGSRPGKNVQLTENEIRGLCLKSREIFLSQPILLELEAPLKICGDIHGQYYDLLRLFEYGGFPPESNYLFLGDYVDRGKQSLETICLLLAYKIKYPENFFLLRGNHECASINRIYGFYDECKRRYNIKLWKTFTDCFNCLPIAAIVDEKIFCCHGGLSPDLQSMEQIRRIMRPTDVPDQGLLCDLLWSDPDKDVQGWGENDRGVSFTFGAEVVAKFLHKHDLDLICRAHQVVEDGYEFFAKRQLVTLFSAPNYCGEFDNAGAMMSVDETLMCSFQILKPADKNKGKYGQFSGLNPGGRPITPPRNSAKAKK

On to `O=C(OCn1ncc(Br)c(Br)c1=O)c1ccccc1Cl`, for which the CC50 in assay [1] is > 1.22 µM (not active); in assay [6] it was 5.77 µM (active); in assay [7], 17.8 µM (active); in [8] it was 5.45 µM (active). Also, the results for the EC50 in [2], in [3] and in [13] were 2.03 µM (active), 1.88 µM (active) and 0.472 µM (active), respectively. Further, the IC50 is 1.75 µM (active) in [4]; 15.3 µM (not active) in assay [5]; 3.24 µM (active) in [9]; 1.46 µM (active) in assay [10]; > 49.8 µM (inactive) in assay [14]. In addition, the values for the AC50 in assay [11], in assay [12] and in assay [15] were 2 µM (active), 8.37 µM (active) and 4.76 µM (active), respectively.

Take `COc1ccc(/C=N/Nc2cc(C)nc(-n3nc(C)cc3C)n2)cc1`: the IC50 is 5.81 µM (active) in assay [16], > 67 µM (not active) in assay [17] and < 0.1 µM (active) in assay [9]. Besides, the values for the CC50 in [6] and in [8] were 6.97 µM (active) and 8.36 µM (active), respectively. In assay [15], the AC50 was 2.42 µM (active).

With `O=C(Nc1ccc(NC(=O)c2cc3ccccc3o2)cc1)c1ccc2c(c1)OCCO2`, the EC50 is 3.02 µM (active) in [18]; > 12 µM (not active) in assay [19]; 12.7 µM (active) in [20]; < 0.1 µM (active) in [21]; 2.35 µM (active) in [22]. Moreover, the IC50 in assay [23] was > 80 µM (inactive).

The record behind these values is ChEMBL document CHEMBL1201862, “PubChem BioAssay data set” (2004).
